# Measurements from patent publication US6420563B1, “Small molecule modulators of G protein-coupled receptor six” (Arena Pharmaceuticals, Inc., priority 1998, dated 2002).
# Like-named read-outs stand apart in the source and are kept apart here.
# How the values were obtained:
# [1] = Food/water intake and body weight in 24-hour food deprived rats, oral gavage (PO); format: in vivo, rat; settings: for water drunk (FIG. 10B): comparable to vehicle; for body weight gain (FIG. 10C): vehicle about 19.5 grams
# Experimental: Based upon the in vivo data developed, oral bioavailability of compound ARE112 was determined. The compound was administered by oral gavage at doses ranging from 6.75 to 54 mg/kg. The data presented in FIGS. 9A and 9B support the conclusion that oral administration of ARE112 also decreases food intake in both food-deprived and non-food deprived rats. […] In FIG. 9A, rats were deprived 24 hours prior to oral administration of the compound. In this assay, the vehicle-treated rats at 2.5 hours consumed […] of food while injected rats; particularly rats administered with 27 and 54 mg/kg of ARE 112, ate about 6 and 4 grams, respectively. […] (See, FIG. 9A).
# Several other GPR6 inverse agonists were also assessed under 24-hour food deprived conditions, with PO administration. The analogs listed below were tested at 200 μmol/kg, which is equivalent to 54 mg/kg. In addition, ARE114 was also assessed at […]. Data are summarized below in Table C:
# In a second assay, tested under the same conditions, several other analogs were assessed at 100 μmol/kg.
# In FIG. 10, rats were deprived 24 hours prior to oral administration of the compound. In this assay, analogs ARE130, ARE135, ARE136, and ARE140, were administered at a dose of 100 μmol/kg. Three analogs, particularly, ARE130, ARE136 and ARE140 evidenced a slow intake of food (e.g., about 1 to 1.5 grams every two hours) over an eight hour period post-administration; while the vehicle rat consumed about 2 to 2.5 grams food every two hours. Similar to the vehicle rat, analog ARE135, an opened ring structure, evidenced that over an eight hour period post-administration the rats increasingly consumed about 2.5 grams every two hours. (See, FIG. 10A). Furthermore, the body weight of the vehicle rat and administered rats with analog ARE135 gained about 19.5 grams. On the other hand, the closed ring structures evidenced a decrease in body weight gain as follows: ARE112-6 grams, ARE130-9 grams, ARE136-11 grams and ARE140-14 grams. See, FIG. 10C.
# [2] = target: T1, GPR6 (Homo sapiens, UniProt P46095); experiment: membrane-based cyclic AMP confirmation assay (Example 4C); format: biochemical; settings: mean +/- standard deviation (number of assays in brackets); read-out: IC50 Values Cyclic AMP Assay Example 4C
# T1 construct: expressed in transfected cells; 293 cells are used elsewhere
# Description: Using an independent assay approach to provide confirmation of a directly identified candidate compound as set forth above, it is preferred that a confirmation assay then be utilized. In this case, the preferred confirmation assay is membrane-based cyclic AMP (cAMP) assay.
# A modified Flash Plate™ Adenylyl Cyclase kit (New England Nuclear; Cat. No. SMP004A) was utilized for confirmation of candidate compounds directly identified as inverse agonists and agonists to endogenous, constitutively activated orphan GPCRs in accordance with the following protocol.
# Transfected stable cells were harvested approximately three days after transfection. Membranes were prepared by homogenization of suspended cells in buffer containing 20 mM HEPES, pH 7.4 and 10 mM MgCl2. Homogenization was performed on ice using a Brinkman Polytron™ for approximately 10 seconds. The resulting homogenate was centrifuged at 20,000 rpm for 20 minutes at 4° C. The resulting pellet was then resuspended in buffer containing 20 mM HEPES, pH 7.4 and 0.1 mM EDTA, homogenized for 10 seconds, followed by centrifugation at 20,000 rpm for 20 minutes at 4° C. The resulting pellet can be stored at −80° C. until utilized. On the day of direct identification screening, the membrane pellet is slowly thawed at room temperature, resuspended in buffer containing 20 mM HEPES, pH 7.4, 100 mM NaCl and 10 mM MgCL2, to yield a final protein concentration of 0.60 mg/ml (the resuspended membranes are placed on ice until use).
# Candidate compounds identified as per above (if frozen, thawed at room temperature) were added to plate wells (3 μl/well; 12 μM final assay concentration), together with 50 μl Membrane Protein (30 μg/well) and 50 μl of Assay Buffer. This admixture was then incubated for 30 minutes at room temperature, with gentle shaking.
# Following the incubation, 100 μl of Detection Buffer was added to each well, followed by incubation for 2-20 hours. Plates were subsequently aspirated and then counted in a Wallac MicroBeta™ plate reader using “Prot. #31” (as per manufacturer instructions).
# [3] = target: T2, GPR6:Gsα-Fusion Protein (Homo sapiens, UniProt P46095); experiment: [35S]GTPγS membrane binding assay (Example 4A); format: biochemical
# T2 construct: expressed in transfected cells
# Experimental: The assay plates were then centrifuged at 400 rpm for 15 minutes at room temperature and then subsequently aspirated and counted in a scintillation counter.
# Membranes expressing the GPCR6:Gsα-Fusion Protein (see Example 2) and for use in the direct identification of candidate compounds as inverse agonists, agonists or partial agonists were prepared as follows:
# All materials were kept on ice throughout the procedure. Firstly, the media was aspirated from a confluent monolayer of cells, followed by rinse with 10 ml cold PBS, followed by aspiration. Thereafter, 5 ml of membrane Scrape Buffer was added to scrape cells; this was followed by transfer of cellular extract into 50 ml centrifuge tubes (centrifuged at 20,000 rpm for 17 minutes at 4° C.). Thereafter, the supernatant was aspirated and the pellet was resuspended in 30 ml Membrane Wash Buffer followed by centrifuge at 20,000 rpm for 17 minutes at 4° C. The supernatant was then aspirated and the pellet resuspended in Binding Buffer. This was then homogenized using a Brinkman polytron™ homogenizer (15-20 second bursts until the all material was in suspension). This is referred to herein as “Membrane Protein”.
# Candidate compounds (Tripos, Inc., St. Louis, Mo.) were received in 96-well plates (these can be frozen at −80° C.). Membrane Protein (or membranes with expression vector excluding the GPR6:Gsα-Fusion Protein, as control), were homogenized briefly until in suspension. Protein concentration was then determined using the Bradford Protein Assay set forth above. […] Thereafter, 100 ul GDP Buffer was added to each well of a Wallac Scintistrip™ (Wallac). A 5 ul pin-tool was then used to transfer 5 ul of a candidate compound into such well (i.e., 5 ul in total assay volume of 200 ul is a 1:40 ratio such that the final screening concentration of the candidate compound is 10 uM). Again, to avoid contamination, after each transfer step the pin tool was rinsed in three reservoirs comprising water (1×), ethanol (1×) and water (2×)—excess liquid should be shaken from the tool after each rinse and dried with paper towels and kimwipes™. Thereafter, 50 ul of Membrane Protein was added to each well (a control well comprising membranes without the GPCR Fusion Protein is also utilized), and pre-incubated for 5-10 minutes at room temperature (the plates were covered with foil in that the candidate compounds obtained from Tripos are light sensitive). Thereafter, 50 ul of [^35S]GTPγS (0.6 nM) in Binding Buffer was added to each well, followed by incubation on a shaker for 60 minutes at room temperature (again, in this example, plates were covered with foil). The assay was then stopped by spinning of the plates at 4000 RPM for 15 minutes at 22° C. The plates were then aspirated with an 8 channel manifold and sealed with plastic plate covers. The plates were then read on a Wallac 1450 using setting “Prot. #37” (as per manufacturer instructions).
# The initial or “primary” screen designed to directly identify, e.g., human GPR6 receptor inverse agonists, consisted of the membrane-based GTPγS binding assay of Example 4A utilizing membranes prepared from 293 stable cells. Candidate compounds directly identified as inhibiting receptor-mediated increases in GTPγS as set forth below were considered active “leads”.
# It is preferred that following such direct identification, IC50 (inverse agonist) or EC50 (agonist) values be determined; those having ordinary skill in the art are credited with utilizing IC50 and EC50 assay protocols of choice. FIG. 4 provides a representative IC50 curve for compound ARE112 using the assay protocol of Example 4A.
# [4] = 200 μmol/kg PO, Table C, vehicle 14.5
# [5] = 200 μmol/kg PO, Table C, vehicle 20.3
# [6] = 200 μmol/kg PO, Table C, vehicle 22.9
# [7] = mean +/- standard deviation (number of assays in brackets), read-out: IC50 Values GTP Assay Example 4A
# [8] = 100 μmol/kg PO, second assay, Table D, vehicle 14.0
# [9] = 100 μmol/kg PO, second assay, Table D, vehicle 19.25
# [10] = mean +/- SD (number of assays), read-out: IC50 Values (Table E, GTP Assay of Example 4A)
# T2 sequence (P46095 with tags, fused parts or gaps): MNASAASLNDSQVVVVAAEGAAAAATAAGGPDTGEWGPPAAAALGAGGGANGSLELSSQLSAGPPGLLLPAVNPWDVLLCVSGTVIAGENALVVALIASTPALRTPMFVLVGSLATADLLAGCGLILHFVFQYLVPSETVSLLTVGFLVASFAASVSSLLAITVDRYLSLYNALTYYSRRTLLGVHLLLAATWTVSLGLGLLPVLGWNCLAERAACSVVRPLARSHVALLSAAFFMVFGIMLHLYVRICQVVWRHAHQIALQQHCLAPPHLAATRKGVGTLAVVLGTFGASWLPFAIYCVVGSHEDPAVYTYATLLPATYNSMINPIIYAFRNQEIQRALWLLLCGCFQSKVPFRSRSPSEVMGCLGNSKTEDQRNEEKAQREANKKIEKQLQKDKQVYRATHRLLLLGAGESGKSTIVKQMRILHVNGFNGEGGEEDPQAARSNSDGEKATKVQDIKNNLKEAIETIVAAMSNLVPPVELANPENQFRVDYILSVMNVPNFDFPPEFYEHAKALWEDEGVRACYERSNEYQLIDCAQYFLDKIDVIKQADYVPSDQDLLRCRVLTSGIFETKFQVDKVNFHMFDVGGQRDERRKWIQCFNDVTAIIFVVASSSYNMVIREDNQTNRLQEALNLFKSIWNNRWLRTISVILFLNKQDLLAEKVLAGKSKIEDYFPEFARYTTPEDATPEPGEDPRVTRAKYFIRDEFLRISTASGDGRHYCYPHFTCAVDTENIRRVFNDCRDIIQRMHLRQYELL
# T1 sequence (P46095 whole entry): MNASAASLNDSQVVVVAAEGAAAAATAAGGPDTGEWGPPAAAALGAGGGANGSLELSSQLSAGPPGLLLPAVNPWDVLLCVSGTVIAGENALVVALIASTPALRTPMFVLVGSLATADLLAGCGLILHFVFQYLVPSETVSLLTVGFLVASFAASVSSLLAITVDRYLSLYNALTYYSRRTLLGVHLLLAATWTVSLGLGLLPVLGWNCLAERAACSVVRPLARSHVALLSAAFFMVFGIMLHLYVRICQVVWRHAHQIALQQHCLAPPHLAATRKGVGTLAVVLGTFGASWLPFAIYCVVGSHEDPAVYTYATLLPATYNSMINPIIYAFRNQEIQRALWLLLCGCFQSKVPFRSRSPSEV
Compound,IC50 [2] [nM],"IC50 [3, 7] [nM]",other results
"O=C(N=C1SSC2=NCCN21)c1ccc(Cl)cc1 [ARE120, N-(5,6-dihydro-3H-imidazo[2,1-c]-1,2,4-dithiazol-3-ylidene)-4-chlorobenzamide]",270,640,"Cumulative Food Intake (g) (8 hr post administration) [1, 4]: 9.88 g; Body Weight Gain (g) (6 hr post administration) [1, 5]: 11.4 g; Cumulative Water Intake (g) (6 hr post administration) [1, 6]: 18.5 g"
"O=C(N=C1SSC2=NCCN21)c1ccccc1 [ARE114, N-(5,6-dihydro-3H-imidazo[2,1-c]-1,2,4-dithiazol-3-ylidene)-benzamide]",170,440,"Cumulative Food Intake (g) (8 hr post administration) ([1]; 100 μmol/kg PO, Table C, vehicle 14.5): 10.8 g; Body Weight Gain (g) (6 hr post administration) ([1]; 100 μmol/kg PO, Table C, vehicle 20.3): 13.6 g; Cumulative Water Intake (g) (6 hr post administration) ([1]; 100 μmol/kg PO, Table C, vehicle 22.9): 15.3 g; Cumulative Food Intake (g) (8 hr post administration) [1, 4]: 8.68 g; Body Weight Gain (g) (6 hr post administration) [1, 5]: 6.18 g; Cumulative Water Intake (g) (6 hr post administration) [1, 6]: 10.6 g"
"O=C(N=C1SSC2=NCCN21)c1ccc(F)cc1 [ARE128, N-(5,6-dihydro-3H-imidazo[2,1-c]-1,2,4-dithiazol-3-ylidene)-4-fluorobenzamide]",200,370,"Cumulative Food Intake (g) (8 hr post administration) [1, 4]: 7.93 g; Body Weight Gain (g) (6 hr post administration) [1, 5]: 4.03 g; Cumulative Water Intake (g) (6 hr post administration) [1, 6]: 8.5 g"
"CC(C)(C)c1ccc(C(=O)N=C2SSC3=NCCN32)cc1 [ARE118, N-(5,6-dihydro-3H-imidazo[2,1-c]-1,2,4-dithiazol-3-ylidene)-4-tert-butylbenzamide]",370,650,
"O=C(NC(=S)N1CCNC1=S)c1ccc(F)cc1F [ARE133, N-(2-thioxo-imidazolidine-1-carbothioyl)-2,4-difluorobenzamide]",170,110,
"O=C(N=C1SSC2=NCCN21)c1ccc(F)cc1F [ARE134, N-(5,6-dihydro-3H-imidazo[2,1-c]-1,2,4-dithiazol-3-ylidene)-2,4-difluorobenzamide]",190,410,
"O=C(N=C1SSC2=NCCN21)c1ccccc1F [ARE132, N-(5,6-dihydro-3H-imidazo[2,1-c]-1,2,4-dithiazol-3-ylidene)-2-fluorobenzamide]",100,350,
"COc1ccc(C(=O)NC(=S)N2CCNC2=S)cc1 [ARE121, N-(2-thioxo-imidazolidine-1-carbothioyl)-4-methoxybenzamide]",55000,122000,

# Further lines, with some results ahead:
IC50 [2] [nM],"IC50 [3, 7] [nM]",Compound,other results
710,100000,"O=C(NC(=S)N1CCNC1=S)c1ccc2ccccc2c1 [ARE135, N-(2-thioxo-imidazolidine-1-carbothioyl)-naphthyl-2-carboxamide]","Cumulative Food Intake (g) (8 hr post administration) [1, 8]: 13.5 g; Body Weight Gain (g) (6 hr post administration) [1, 9]: 19.5 g; Cumulative Water Intake (g) (6 hr post administration) [1, 9]: 19.5 g; food intake every two hours ([1]; 100 μmol/kg oral, over eight hour period post-administration (FIG. 10A), vehicle about 2 to 2.5 grams): about 2.5 grams; water drunk (FIG. 10B) ([1]; 100 μmol/kg oral): about 19 grams; body weight gain (FIG. 10C) ([1]; 100 μmol/kg oral): about 19.5 grams; IC50 [3, 10]: 100000 nM"
190,130,"O=C(N=C1SSC2=NCCN21)c1cc2ccccc2s1 [ARE140, N-(5,6-dihydro-3H-imidazo[2,1-c]-1,2,4-dithiazol-3-ylidene)-benzothiophen-2-carboxamide]","Cumulative Food Intake (g) (8 hr post administration) [1, 8]: 9.6 g; Body Weight Gain (g) (6 hr post administration) [1, 9]: 14.6 g; Cumulative Water Intake (g) (6 hr post administration) [1, 9]: 20.0 g; water drunk (FIG. 10B) ([1]; 100 μmol/kg oral): about 19 grams; body weight gain (FIG. 10C) ([1]; 100 μmol/kg oral): 14 grams; IC50 [3, 10]: 170 nM"
4520,260,"O=C(NC(=S)N1CCNC1=S)c1cc2ccccc2s1 [ARE139, N-(2-thioxo-imidazolidine-1-carbothioyl)-benzothiophen-2-carboxamide]",
130,450,"O=C(/N=C1\SSC2=NCCN21)c1cccc2ccccc12 [ARE138, N-(5,6-dihydro-3H-imidazo[2,1-c]-1,2,4-dithiazol-3-ylidene)-naphthyl-1-carboxamide]",
133,670,"O=C(N=C1SSC2=NCCN21)c1cccnc1 [ARE156, N-(5,6-dihydro-3H-imidazo[2,1-c]-1,2,4-dithiazol-3-ylidene)-pyridine-3-carboxamide]",
110,250,"O=C(N=C1SSC2=NCCN21)c1ccco1 [ARE144, N-(5,6dihydro-3H-imidazo[2,1-c]-1,2,4-dithiazol-3-ylidene)furan-2-carboxamide]",
350,460,Cc1noc(C)c1C(=O)/N=C1\SSC2=NCCN21 [ARE148],
